Source: publication PMC9078263 (RSC Advances, 2018)

Biological target: New Delhi metallo-β-lactamase 1 (NDM-1) (Acinetobacter baumannii, UniProt F8UNN7)
Assay: steady-state kinetics of hydrolysis
Format: biochemical

Sequence of New Delhi metallo-β-lactamase 1 (NDM-1) (F8UNN7 1-270): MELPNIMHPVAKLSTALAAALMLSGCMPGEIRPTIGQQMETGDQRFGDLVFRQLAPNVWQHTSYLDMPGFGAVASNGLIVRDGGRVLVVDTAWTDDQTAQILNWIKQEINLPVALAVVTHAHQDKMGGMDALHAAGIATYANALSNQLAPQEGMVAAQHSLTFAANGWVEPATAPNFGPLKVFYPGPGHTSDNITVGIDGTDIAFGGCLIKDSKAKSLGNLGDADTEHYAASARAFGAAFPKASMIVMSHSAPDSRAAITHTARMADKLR

| Structure (SMILES) | Km |
| --- | --- |
| CO[C@@]1(NC(=O)Cc2cccs2)C(=O)N2C(C(=O)O)=C(COC(N)=O)CS[C@@H]21 [cefoxitin] | > 60 µM |
| CC(C)(O/N=C(\C(=O)N[C@@H]1C(=O)N2C(C(=O)[O-])=C(C[n+]3ccccc3)CS[C@H]12)c1csc(N)n1)C(=O)O [ceftazidime] | > 60 µM |
| C[C@@H](O)[C@H]1C(=O)N2C(C(=O)O)=C(S[C@@H]3CN[C@H](C(=O)N(C)C)C3)[C@H](C)[C@H]12 [meropenem] | > 60 µM |
